Source: patent publication US20230119002A1, “COMPOSITIONS AND METHODS CONTAINING REDUCED NICOTINAMIDE RIBOSIDE FOR PREVENTION AND TREATMENT OF CARDIOVASCULAR DISEASES AND CONDITIONS” (SOCIETE DES PRODUITS NESTLE S.A., priority 2020, published 2023)
Structures can show the parent of a compound that is named as a salt. Blank lines part the entries; values can stand above or below the compound they belong to.

Assays:
[1] = Stability in FBS supplemented media; type: in vitro ADME
Protocol: (§1) NR degradation to NAM has been proposed as a limitation for its pharmacological efficacy. To evaluate whether NRH was also susceptible to degradation to NAM, we spiked NRH or NR in isolated mouse plasma. […] We also tested the stability of NRH in other matrixes. […] Finally, we also certified NRH stability in water (pH=7, at room temperature) for 48 h.

[2] = system: NRK1; experiment: NAD+ levels in primary hepatocytes from control or NRK1 knockout mice; conditions: 1 hour of treatment, NRK1 knockout mouse hepatocytes
[3] = Tissue NAD+ and circulating metabolites after IP injection in mice; type: in vivo; conditions: for NAD+ levels in liver, muscle and kidney: after 1 h
Text: (§2) Levels of NRH and other NAD-related metabolites in biological samples were obtained by using a cold liquid-liquid extraction using a mixture of methanol:water:chloroform in 5:3:5 (v/v), from which the polar phase was recovered for hydrophilic interaction ultra-high performance liquid chromatography mass spectrometry (UHPLC-MS) analysis. The UHPLC consisted of a binary pump, a cooled autosampler, and a column oven (DIONEX Ultimate 3000 UHPLC+ Focused, Thermo Scientific), connected to a triple quadrupole spectrometer (TSQ Vantage, Thermo Scientific) equipped with a heated electrospray ionisation (H-ESI) source. Of each sample, 2 μL were injected into the analytical column (2.1 mm×150 mm, 5 μm pore size, 200 Å HILICON iHILIC®-Fusion(P)), guarded by a pre-column (2.1 mm×20 mm, 200 Å HILICON iHILIC®-Fusion(P) Guard Kit) operating at 35° C. The mobile phase (10 mM ammonium acetate at pH 9, A, and acetonitrile, B) was pumped at 0.25 mL/min flow rate over a linear gradient of decreasing organic solvent (0.5-16 min, 90-25% B), followed by re-equilibration for a total run time of 30 min. The MS operated in positive mode at 3500 V with multiple reaction monitoring (MRM). The software Xcalibur v4.1.31.9 (Thermo Scientific) was used for instrument control, data acquisition and processing. Retention time and mass detection was confirmed by authentic standards.
The above results prompted us to test whether NRH could act as an effective NAD+ precursor in vivo. For this, we first intraperitoneally (IP) injected mice with either NR or NRH (500 mg/kg). […] Importantly, NRH was detectable in circulation after IP injection.

[4] = type: in vivo, mice
Protocol: 8 week-old C57BI/6NTac mice were orally gavaged with either saline (as vehicle), NR (500 mg/kg) or NRH (500 mg/kg). After 1 hour, liver, skeletal muscle and kidney NAD^+ levels were evaluated. All results are expressed as mean+/−SEM of n=5 mice per group. * indicates statistical difference at p<0.05 vs. vs. saline-treated mice. # indicates statistical difference at p<0.05 vs. NR treated mice.
as §2
Oral administration of NRH led to very similar results to those observed after IP administration. […] NRH was detectable in plasma 1 h after oral administration. In contrast, NR levels were undetectable at 1 h after NR administration.

[5] = Stability in isolated mouse plasma; type: in vitro ADME
Text: as §2, §1

[6] = system: 3T3 fibroblasts; experiment: NAD+ levels in 3T3 fibroblasts after NRH treatment; type: cell-based
Protocol: (§3) The ability of NRH to potently increase NAD+ was tested as well in other cell type models.

[7] = system: INS1-cells; experiment: NAD+ levels in INS1-cells after NRH treatment; type: cell-based
Protocol: as §3

[8] = molecular target: T1, adenosine kinase (AK) (Mus musculus, UniProt P55264); experiment: NRH-induced NAD+ synthesis with adenosine kinase inhibitors; type: cell-based
T1 construct: endogenous in cells; host or cells: AML12 cells
Protocol: AML12 cells were treated with an adenosine kinase inhibitor (5-IT; […]) for 1 hour prior to NRH treatment at the doses indicated. Then, 1 hour later, acidic extracts were obtained to measure NAD^+ levels. All values in the figure are expressed as mean+/−SEM of 3 independent experiments. * indicates statistical difference at p<0.05 vs. the respective vehicle treated group.
Considering the molecular structure of NRH, we reasoned that an alternative nucleoside kinase could be responsible for the phosphorylation of NRH. Confirming this expectation, the adenosine kinase (AK) inhibitor 5-iodotubercidin (5-IT) fully ablated the action of NRH. The role of AK in NRH-mediated NAD+ synthesis was confirmed using a second, structurally different, AK inhibitor, ABT-702. Metabolomic analyses further confirmed that upon inhibition of AK, the generation of NMNH, NADH and NAD+ was fully blunted, even if NRH was effectively entering the cell.

[9] = system: H9C2 cardiomyocytes; experiment: Oxidative stress-induced cardiomyocyte cell death; type: cell-based; conditions: H2O2 0.25 mM or 0.5 mM for 24 hours, NRH 0.1 mM
Protocol: H9C2 cardiomyocytes were differentiated for 6 days and then were treated with hydrogen peroxide (H2O2; at either 0.25 mM or 0.5 mM) for 24 hrs in the presence or absence of NRH (0.1 mM). PBS was used as vehicle for NRH. After 24 hrs, cell viability was evaluated by lumiscence using a commercial kit (Cell Title-Glow; Promega). All results are expressed as meand+/−SEM of n=6 experiments. * indicates P<0.05 vs. the respective vehicle treated group.
H9C2 cardiomyocytes were differentiated for 6 days and then were treated with hydrogen peroxide (H2O2; at either 0.25 mM or 0.5 mM) for 24 hours in the presence or absence of NRH (0.1 mM). PBS was used as vehicle for NRH. After 24 hours, cell viability was evaluated by lumiscence using a commercial kit (Cell Title-Glow; Promega).

[10] = system: C2C12 myotubes; experiment: NAD+ levels in C2C12 myotubes after NRH treatment; type: cell-based
Protocol: as §3

[11] = system: equilibrative nucleoside transporters (ENTs); experiment: NRH-induced NAD+ synthesis with ENT-mediated transport blocked by NBTI; type: cell-based; conditions: in the presence of NBTI (ENT blocker)
Text: In order to understand the exact path by which NRH synthesizes NAD+, we initially evaluated whether NRH, could be transported into the cell by equilibrative nucleoside transporters (ENTs).

[12] = system: NMNAT; experiment: NRH-induced NAD+ synthesis with NMNAT inhibitor gallotannin; type: cell-based
Text: As a follow-up step, NMNAT enzymes could catalyze the transition from NMNH to NADH. […] Yet, part of the NRH action remained after gallotannin treatment when NRH was used at maximal doses.

[13] = molecular target: T2, NAMPT (Mus musculus, UniProt Q99KQ4); experiment: NRH-induced NAD+ synthesis with NAMPT inhibitor FK866; type: cell-based
T2 construct: endogenous in cells; AML12 inferred

[14] = system: zebrafish embryos; experiment: Doxorubicin-induced toxicity in zebrafish larvae; type: in vivo; conditions: Doxorubicin 25 uM with NRH 500 uM, up to 60 h
Protocol: 1 day post fertilization zebrafish embryos were placed in 24 well plates and treated with Doxorubicin (25 uM), either alone or in combination with NRH (500 uM). Untreated group was exposed to DMSO (0.05%). Health of the larvae was monitored frequently, and dead larvae were scored overtime, up to 60 h treatment. Results are expressed as percent of survival of n=60 embryos per group. Statistics represented were calculated by pairwise comparison using log-rank test and p-value adjustment was performed by Bonferroni correction. p-Value for median survival of untreated vs Doxorubicin <0.0001, p-value Doxorubicin vs Doxorubicin+NRH <0.0001.
Doxorubicin is a chemotherapeutic agent that is well established to be cardiotoxic. This drug has also been described to induce cardiomyopathy in zebrafish larvae. 1 day post fertilization zebrafish embryos were placed in 24 well plates and treated with Doxorubicin (25 uM), either alone or in combination with NRH (500 uM). Untreated group was exposed to DMSO (0.05%). Health of the larvae was monitored frequently, and dead larvae were scored overtime, up to 60 h treatment. Results are expressed as percent of survival of n=60 embryos per group.

[15] = system: AML12 hepatocytes; experiment: Intracellular NAD+ levels in AML12 hepatocytes after NRH or NR treatment; type: cell-based
Text: as §2
Even at such relatively low dose, NRH achieved similar increases in intracellular NAD+ levels to those reached with NR at 50-fold higher concentrations.
NRH actions were also extremely fast (FIG. 3), as significant increases in NAD+ levels were observed within 5 minutes after NRH treatment.

[16] = system: zebrafish larvae; experiment: Ethanol-induced cardiac edema in zebrafish larvae; type: in vivo; conditions: 2% Ethanol during 20 h, NRH 500 uM co-treatment, 3 days post fertilization
Protocol: Phenotypic scoring of cardiac edema severity in zebrafish larvae at 3 days post fertilization exposed to 2% Ethanol during 20 h with or without NRH (500 uM) co-treatment (untreated, n=60; Ethanol, n=73; Ethanol +NRH, n=72). Statistics represented were calculated by non-parametric Chi-square test without p-value adjustment. **** p-Value<0.0001, * p-Value=0.0275.
Phenotypic scoring of cardiac edema severity in zebrafish larvae at 3 days post fertilization exposed to 2% Ethanol during 20 h with or without NRH (500 uM) co-treatment (untreated, n=60; Ethanol, n=73; Ethanol+NRH, n=72). This indicates NRH protects against ethanol-induced cardiac edema in Zebrafish.

T1 sequence (P55264 whole entry): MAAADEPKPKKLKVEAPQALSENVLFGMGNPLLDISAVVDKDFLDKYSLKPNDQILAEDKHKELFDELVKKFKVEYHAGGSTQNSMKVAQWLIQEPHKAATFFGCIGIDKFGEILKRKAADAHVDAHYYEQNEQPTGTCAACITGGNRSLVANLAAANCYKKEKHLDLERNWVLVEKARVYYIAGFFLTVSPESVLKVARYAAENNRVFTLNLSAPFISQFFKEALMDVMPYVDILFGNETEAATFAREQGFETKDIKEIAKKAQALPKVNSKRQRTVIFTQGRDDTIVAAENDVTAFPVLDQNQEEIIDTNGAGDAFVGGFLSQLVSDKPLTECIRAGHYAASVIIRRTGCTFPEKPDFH
T2 sequence (Q99KQ4 whole entry): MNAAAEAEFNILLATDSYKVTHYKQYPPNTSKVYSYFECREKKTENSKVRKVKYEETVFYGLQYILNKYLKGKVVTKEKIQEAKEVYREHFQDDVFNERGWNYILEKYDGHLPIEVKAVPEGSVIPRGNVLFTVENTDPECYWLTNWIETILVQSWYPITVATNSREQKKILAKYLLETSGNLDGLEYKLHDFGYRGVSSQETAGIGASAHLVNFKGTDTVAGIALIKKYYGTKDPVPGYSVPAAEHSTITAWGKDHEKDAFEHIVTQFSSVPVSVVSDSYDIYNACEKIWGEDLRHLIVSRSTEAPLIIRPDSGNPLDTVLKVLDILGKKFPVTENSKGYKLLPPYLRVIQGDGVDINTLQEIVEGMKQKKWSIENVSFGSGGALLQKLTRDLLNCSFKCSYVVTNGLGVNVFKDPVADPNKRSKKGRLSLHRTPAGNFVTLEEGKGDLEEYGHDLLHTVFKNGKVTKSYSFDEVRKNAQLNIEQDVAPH

degradation to NAM in FBS supplemented media [1]: occurs | NAD+ levels in NRK1KO derived primary hepatocytes [2]: failed to increase NAD+ levels | NAM levels in circulation ([3]; mice, IP 500 mg/kg): highly increased | circulating NAM after NR relative to after NRH treatment ([4]; C57BI/6NTac, mouse, in vivo, po, 1 h): ~4 fold | administered compound in plasma ([4]; mouse, in vivo, po): undetectable | circulating NAM ([4]; mouse, in vivo, po): large increases | compound levels in isolated mouse plasma ([5]; spiked, 2 h of incubation): decayed | generation of NAM in isolated mouse plasma ([5]; spiked, 2 h of incubation): increase in NAM
Structure (SMILES): NC(=O)c1ccc[n+]([C@@H]2O[C@H](CO)[C@@H](O)[C@H]2O)c1 [NR, 1-b-D-ribofuranosyl-3-pyridinecarboxamide salt, reference compound]
NAD+ levels in liver, muscle and kidney ([3]; mice, IP 500 mg/kg): increased

Structure (SMILES): NC(=O)C1=CN([C@@H]2O[C@H](CO)[C@@H](O)[C@H]2O)C=CC1 [NRH]
degradation to NAM in FBS supplemented media [1]: did not degrade to NAM | NAD+ levels [6]: highly elevated | NAD+ levels [7]: highly elevated | formation of NR and NMN after NRH treatment with 5-IT ([8]; 5-IT treatment): prevented the formation of NR and NMN | action of NRH on NAD+ with 5-iodotubercidin (5-IT) ([8]; AML12 cells, 5-IT 10 mM for 1 hour prior to NRH, NAD+ 1 hour later): fully ablated | generation of NMNH, NADH and NAD+ upon inhibition of AK ([8]; metabolomic analyses): fully blunted | role of AK in NRH-mediated NAD+ synthesis with ABT-702 ([8]; second, structurally different AK inhibitor): confirmed | cell viability under oxidative stress [9]: protects | NAD+ levels [10]: highly elevated | capacity as extracellular NAD+ precursor [11]: largely lost its capacity | NAD+ synthesis after NRH treatment with gallotannin ([12]; NMNAT inhibitor gallotannin, part of action remained at maximal doses (0.5 mM)): largely compromised | NRH action with gallotannin at submaximal doses ([12]; submaximal NRH doses): totally blocked | dependence of action on NAMPT [13]: NAMPT-independent | survival under doxorubicin induced toxicity [14]: rescues | intracellular NRH and NMNH ([15]; 5 minutes after treatment): could be detected | concentration of maximal effects on NAD+ synthesis ([15]; AML12 hepatocytes): around the millimolar range | time to significant increase in NAD+ levels after treatment ([15]; AML12 hepatocytes (FIG. 3)): ≤ 5 min | NR concentration needed for similar increase in intracellular NAD+, relative to NRH ([15]; AML12 hepatocytes, NRH at 10 μM): 50 fold | increase of intracellular NAD+ levels at maximal effect ([15]; AML12 hepatocytes, around the millimolar range): more than 10 fold | ability to increase intracellular NAD+ ([15]; AML12 hepatocytes, compared with NR): superior to that of NR | concentration at which NAD+ levels were significantly increased ([15]; AML12 hepatocytes, dose-response (FIG. 2)): 10 µM | increase in intracellular NR and NMN ([15]; after NRH treatment, compared with NR treatment): greater than that triggered by NR itself | cardiac edema severity (phenotypic scoring) [16]: protects | NAD+ levels in liver, muscle and kidney ([3]; mice, IP 500 mg/kg): increased | NAM levels in circulation ([3]; mouse, in vivo, ip, 500 mg/kg): only a very mild increase | NR in circulation after NRH treatment versus after NR injection ([3]; mouse, in vivo, ip, 500 mg/kg): much higher levels | NRH in circulation ([3]; mouse, in vivo, ip, 500 mg/kg): detectable | effect on hepatic NAD+ levels ([4]; mice, oral administration, compared with NR): more potent effect | NRH concentration in plasma ([4]; mouse, in vivo, po): 11.16 ± 1.74 µM | administered compound in plasma ([4]; mouse, in vivo, po): detectable | NR production on incubation in isolated plasma [5]: did not lead to NR production
